Assay [1] deals with Cy5-labelled Mcl1 (amino acids 171-321) C286S protein (UniProtKB Q07820) (Homo sapiens (Human), UniProt Q07820, C286S). The experiment in a line: Inhibition of Mcl-1 by the fluorescence quenching assay (Example A, Method B). Type of assay: binding. The method, boiled down: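 Cy5-labelled Mcl1 171-321 C286S (1 nM) quenched by TQ5WS-labelled PUMA peptide (10, 20 or 400 nM); displacement raises fluorescence (Ex 620/Em 680 nm). Buffer 10 mM HEPES, 150 mM NaCl, 0.05% Tween 20, pH 7.4, 5% DMSO; 2 h at room temperature, 11-point curves, IC50 converted to Ki (cKi/eKi).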

In assay [2] the test system is NCI-H929 cell lines. Description: In vitro cytotoxicity, CellTiter-Glo (CTG) assay (Example B, Method B). In kind it is cell-based. The following applies: NCI-H929 cells, 48 h incubation, read-out: C50. The method, then:
Cellular viability was monitored with the cell viability assay (Cell Titer-Glo®) on NCI-H929 cell lines. The CellTiter-Glo® (CTG) Luminescent Cell Viability Assay (from Promega) is a homogeneous method to determine the number of viable cells in culture based on quantitation of the ATP present, which signals the presence of metabolically active cells.
Concentration response of test compounds are performed with 10 mM stock solutions (DMSO), 11-points curve, in a 384-well compound plate. The assay plate is prepared by stamping 120 nL from compound dilution plate of all different concentrations (e.g. 10 mM to have final 30 μM assay test) into a cell culture microplate, using Echo acoustic liquid handling (Labcyte, Beckman). 40 μl of cell solution is added and cells are incubated with compounds for 48 h at 37° C., 5% CO2. CTG was added to the cells (according to the manufacturer instructions) and luminescence intensity was recorded using the Pherastar plate reader (BMG).
This assay provides in vitro cellular efficacy of compounds of Formula (I) tested, measuring the C50, defined as the concentration needed to reach 50% of the cellular viability.
(In general: In ATP-based viability assays light output follows the ATP content of the culture.)

Where two headings read alike, the source gives them in different places.

Cy5-labelled Mcl1 (amino acids 171-321) C286S protein, sequence (Q07820 171-321 C286S): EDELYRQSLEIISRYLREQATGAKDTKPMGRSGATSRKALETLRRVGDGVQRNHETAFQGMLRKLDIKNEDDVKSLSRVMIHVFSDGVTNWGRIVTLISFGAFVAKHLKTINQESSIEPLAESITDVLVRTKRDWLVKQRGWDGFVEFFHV

A word on the Ki: it is a measure of affinity in units of concentration, obtained from inhibition or displacement. In the case of `C[C@@H](COc1ccnc2c1[C@H](C)CCC2)C[C@H]1Cc2cc3c(cc2[C@]12CC[C@@](Nc1cccc(Cl)c1)(C(=O)O)CC2)O[C@H](C)[C@@H](C)O3` [Example 976, (1r,2′R,3′R,4S,7′S)-4-(3-chloroanilino)-2′,3′-dimethyl-7′-[(2R)-2-methyl-3-{[(5R)-5-methyl-5,6,7,8-tetrahydroquinolin-4-yl]oxy}propyl]-2′,3′,7′,8′-tetrahydrospiro[cyclohexane-1,6′-indeno[5,6-b][1,4]dioxine]-4-carboxylic acid], the Ki in assay [1] is 0.0163 nM. Moreover, the IC50 in assay [2] (Homo sapiens, NCI-H929, 48 h) is 72.5 nM.

As to `C[C@@H](COc1ccnc2c1[C@H](C)CCC2)C[C@H]1Cc2ccc(-c3ccn(C)c3)cc2[C@]12CC[C@@](Nc1cccc(Cl)c1)(C(=O)O)CC2` [Example 883, (1r,2′S,4S)-4-(3-chloroanilino)-2′-[(2R)-2-methyl-3-{[(5R)-5-methyl-5,6,7,8-tetrahydroquinolin-4-yl]oxy}propyl]-6′-(1-methyl-1H-pyrrol-3-yl)-2′,3′-dihydrospiro[cyclohexane-1,1′-indene]-4-carboxylic acid], in assay [1], the Ki was 0.246 nM. Further, the IC50 in assay [2] (Homo sapiens, NCI-H929, 48 h) worked out at 133 nM.

On to `C[C@@H](COc1ccnc2c1[C@H](C)CC[C@H]2O)C[C@H]1Cc2cc3c(cc2[C@]12CC[C@@](Nc1cccc(Cl)c1)(C(=O)O)CC2)OCO3` [Example 959, (1r,4S,6′S)-4-(3-chloroanilino)-6′-[(2R)-3-{[(5R,8R)-8-hydroxy-5-methyl-5,6,7,8-tetrahydroquinolin-4-yl]oxy}-2-methylpropyl]-6′,7′-dihydro-2′H-spiro[cyclohexane-1,5′-indeno[5,6-d][1,3]dioxole]-4-carboxylic acid], for which, in assay [1], the Ki came out at 0.0117 nM. The IC50 in assay [2] (Homo sapiens, NCI-H929, 48 h) came to 28.7 nM.

As for `CCCC1COc2cc3c(cc2OC1)[C@]1(CC[C@@](Nc2cccc(Cl)c2)(C(=O)O)CC1)[C@@H](C[C@@H](C)COc1ccnc2c1[C@H](C)CCC2)C3` (single isomer, unassigned) [Example 991], the Ki in assay [1] came to 0.0764 nM. Also, in assay [2], the IC50 was determined as 162 nM.

On to `C[C@@H](COc1ccnc2c1[C@H](C)CCC2)C[C@H]1Cc2cc3c(cc2[C@]12CC[C@@](Nc1cccc(Cl)c1)(C(=O)OCOC(=O)C(C)(C)C)CC2)OCO3` [Example 942, [(2,2-dimethylpropanoyl)oxy]methyl (1r,4S,6′S)-4-(3-chloroanilino)-6′-[(2R)-2-methyl-3-{[(5R)-5-methyl-5,6,7,8-tetrahydroquinolin-4-yl]oxy}propyl]-6′,7′-dihydro-2′H-spiro[cyclohexane-1,5′-indeno[5,6-d][1,3]dioxole]-4-carboxylate], for which the Ki in assay [1] came to 15.5 nM. In addition, the IC50 in assay [2] (Homo sapiens, NCI-H929, 48 h) worked out at 222 nM.

`C[C@@H](COc1ccnc2c1[C@H](C)CCC2)C[C@H]1Cc2ccc(OC3CCCC3)cc2[C@]12CC[C@@](Nc1cccc(Cl)c1)(C(=O)O)CC2` [Example 789, (1r,2′S,4S)-4-(3-chloroanilino)-6′-(cyclopentyloxy)-2′-[(2R)-2-methyl-3-{[(5R)-5-methyl-5,6,7,8-tetrahydroquinolin-4-yl]oxy}propyl]-2′,3′-dihydrospiro[cyclohexane-1,1′-indene]-4-carboxylic acid]: in assay [1], the Ki came to 0.135 nM. Moreover, the IC50 in assay [2] (Homo sapiens, NCI-H929, 48 h) is 270 nM.

Take `CC(=O)c1cc(C)c2c(c1)[C@]1(CC[C@@](Nc3cccc(Cl)c3)(C(=O)O)CC1)C(C[C@@H](C)COc1ccnc3c1[C@H](C)CCC3)C2` (single isomer, unassigned) [Example 757]: the Ki in assay [1] was 1.9 nM. In addition, in assay [2], the IC50 came out at 200 nM.

Regarding `C[C@@H](COc1ccnc2c1[C@H](C)CCC2)C[C@H]1Cc2cc3c(cc2[C@]12CC[C@@](Nc1cccc(Cl)c1)(C(=O)O)CC2)O[C@H](C)CO3` [Example 973, (1r,3′R,4S,7′S)-4-(3-chloroanilino)-3′-methyl-7′-[(2R)-2-methyl-3-{[(5R)-5-methyl-5,6,7,8-tetrahydroquinolin-4-yl]oxy}propyl]-2′,3′,7′,8′-tetrahydrospiro[cyclohexane-1,6′-indeno[5,6-b][1,4]dioxine]-4-carboxylic acid], in assay [1], the Ki amounted to 0.0118 nM. In assay [2] (Homo sapiens, NCI-H929, 48 h), the IC50 stood at 34.3 nM.

As to `C[C@@H](COc1ccnc2c1[C@H](C)CCC2)C[C@H]1Cc2cc(Cl)c(OC3CCCC3)cc2[C@]12CC[C@@](Nc1cccc(Cl)c1)(C(=O)O)CC2` [Example 821, (1r,2′S,4S)-5′-chloro-4-(3-chloroanilino)-6′-(cyclopentyloxy)-2′-[(2R)-2-methyl-3-{[(5R)-5-methyl-5,6,7,8-tetrahydroquinolin-4-yl]oxy}propyl]-2′,3′-dihydrospiro[cyclohexane-1,1′-indene]-4-carboxylic acid], the Ki in assay [1] came out at 0.408 nM. The IC50 in assay [2] (Homo sapiens, NCI-H929, 48 h) worked out at 536 nM.

Turning to `COc1cc2c(cc1C)C[C@H](C[C@@H](C)COc1ccnc3c1[C@H](C)CCC3)[C@]21CC[C@](Nc2cccc(Cl)c2)(C(=O)O)CC1` [Example 813, (1r,2′S,4S)-4-(3-chloroanilino)-6′-methoxy-5′-methyl-2′-[(2R)-2-methyl-3-{[(5R)-5-methyl-5,6,7,8-tetrahydroquinolin-4-yl]oxy}propyl]-2′,3′-dihydrospiro[cyclohexane-1,1′-indene]-4-carboxylic acid], the Ki in assay [1] came to 0.0908 nM. In addition, the IC50 in assay [2] (Homo sapiens, NCI-H929, 48 h) was determined as 184 nM.

With `C[C@@H](COc1ccnc2c1[C@H](C)CCC2)C[C@H]1Cc2ccccc2[C@]12CC[C@@](Nc1ccc(Cl)c(Cl)c1)(C(=O)O)CC2` [Example 715, (1r,2′S,4S)-4-(3,4-dichloroanilino)-2′-[(2R)-2-methyl-3-{[(5R)-5-methyl-5,6,7,8-tetrahydroquinolin-4-yl]oxy}propyl]-2′,3′-dihydrospiro[cyclohexane-1,1′-indene]-4-carboxylic acid], in assay [1], the Ki was found to be 2.01 nM. Further, the IC50 in assay [2] (Homo sapiens, NCI-H929, 48 h) was determined as 1290 nM.

`C[C@@H](COc1ccnc2c1[C@H](C)CCC2)C[C@H]1Cc2cc3c(cc2[C@]12CC[C@@](Nc1cccc(Cl)c1)(C(=O)O)CC2)OC(F)(F)O3` [Example 849, (1r,4S,6′S)-4-(3-chloroanilino)-2′,2′-difluoro-6′-[(2R)-2-methyl-3-{[(5R)-5-methyl-5,6,7,8-tetrahydroquinolin-4-yl]oxy}propyl]-6′,7′-dihydro-2′H-spiro[cyclohexane-1,5′-indeno[5,6-d][1,3]dioxole]-4-carboxylic acid]: in assay [1], the Ki amounted to 0.228 nM. For the same compound, the IC50 in assay [2] (Homo sapiens, NCI-H929, 48 h) worked out at 90.5 nM.

For the compound `C[C@@H](COc1ccnc2c1[C@H](C)CCC2)C[C@H]1Cc2cc(F)c(F)cc2[C@]12CC[C@@](Nc1cccc(Cl)c1)(C(=O)O)CC2` [Example 775, (1r,2′S,4S)-4-(3-chloroanilino)-5′,6′-difluoro-2′-[(2R)-2-methyl-3-{[(5R)-5-methyl-5,6,7,8-tetrahydroquinolin-4-yl]oxy}propyl]-2′,3′-dihydrospiro[cyclohexane-1,1′-indene]-4-carboxylic acid], the Ki in assay [1] was determined as 0.518 nM. For the same compound, in assay [2] (Homo sapiens, NCI-H929, 48 h), the IC50 was 84.4 nM.

In the case of `CCOc1cc2c(cc1C)CC(C[C@@H](C)COc1ccnc3c1[C@H](C)CCC3)[C@]21CC[C@](Nc2cccc(Cl)c2)(C(=O)O)CC1` (stereo partly drawn) [Example 824, (1r,4R)-4-(3-chloroanilino)-6′-ethoxy-5′-methyl-2′-[(2R)-2-methyl-3-{[(5R)-5-methyl-5,6,7,8-tetrahydroquinolin-4-yl]oxy}propyl]-2′,3′-dihydrospiro[cyclohexane-1,1′-indene]-4-carboxylic acid], in assay [1], the Ki turned out to be 0.329 nM. The IC50 in assay [2] (Homo sapiens, NCI-H929, 48 h) was 421 nM.

Turning to `C[C@@H](COc1ccnc2c1[C@H](C)CCC2)C[C@H]1Cc2cc3c(cc2[C@]12CC[C@@](Nc1cccc(Cl)c1)(C(=O)O)CC2)O[C@@H](C)CO3` [Example 972, (1r,3'S,4S,7′S)-4-(3-chloroanilino)-3′-methyl-7′-[(2R)-2-methyl-3-{[(5R)-5-methyl-5,6,7,8-tetrahydroquinolin-4-yl]oxy}propyl]-2′,3′,7′,8′-tetrahydrospiro[cyclohexane-1,6′-indeno[5,6-b][1,4]dioxine]-4-carboxylic acid], the Ki in assay [1] came out at 0.00893 nM. Also, the IC50 in assay [2] (Homo sapiens, NCI-H929, 48 h) was 31 nM.

Regarding `C[C@@H](COc1ccnc2c1[C@H](C)CCC2)CC1Cc2c(Cl)c(Cl)ccc2[C@]12CC[C@@](Nc1cccc(Cl)c1)(C(=O)O)CC2` (single isomer, unassigned) [Example 752], the Ki in assay [1] amounted to 0.321 nM. Further, the IC50 in assay [2] stood at 344 nM.

In the case of `CCCOc1ccc2c(c1)[C@]1(CC[C@@](Nc3cccc(Cl)c3)(C(=O)O)CC1)[C@@H](C[C@@H](C)COc1ccnc3c1[C@H](C)CCC3)C2` [Example 787, (1r,2′S,4S)-4-(3-chloroanilino)-2′-[(2R)-2-methyl-3-{[(5R)-5-methyl-5,6,7,8-tetrahydroquinolin-4-yl]oxy}propyl]-6′-propoxy-2′,3′-dihydrospiro[cyclohexane-1,1′-indene]-4-carboxylic acid], the Ki in assay [1] was 0.0573 nM. Moreover, the IC50 in assay [2] (Homo sapiens, NCI-H929, 48 h) amounted to 103 nM.

Values taken from patent publication US20240150293A1, “SPIROCYCLOHEXANE DERIVATIVES, PHARMACEUTICAL COMPOSITIONS CONTAINING THEM AND THEIR USES AS ANTI-APOPTOTIC INHIBITORS” (LES LABORATOIRES SERVIER, priority 2021, published 2024).
